The text below walks through data of US20240067632A1, “WEE1 Degrading Compounds and Uses Thereof” (Bristol-Myers Squibb Company, priority 2022, published 2024).

Where two headings read alike, the source gives them in different places.

One assay concerns the target T1, WEE1 (Homo sapiens, UniProt P30291+Q96SW2).
T1 construct: C-terminal ePL-tagged (DiscoverX, Fremont, CA) full-length WEE1 expression construct; expressed in transfected cells; host or cells: LentiX-HEK293T (Invitrogen), lentiviral transduction; co-expressing GSPT1-GN (G576N, lacking the first 158 amino acids)
As to the kind of experiment: WEE1-ePL degradation assay (LentiX-WEE1-ePL-GSPT1-ND cells, InCELL Hunter luminescence, 4 h). It counts as cell-based. The note with it: 293T-LentiX WEE1-ePL cells; for DC50: read-out: 293T-LentiX WEE1-ePL Degradation 4 hr (EC50). The method, boiled down:
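First, compounds were pre-plated as 10-point, 3-fold dilutions (top 1 uM or 10 uM) with DMSO control; next, WEE1-ePL-expressing HEK293T cells were added and held 4 h at 37 °C; finally, InCELL Hunter reagent was applied for 30 min before luminescence reading. A 4PL fit gave EC50 and Ymin.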

For the next assay, the system named is MKN45 cells. Put plainly: MKN45 cell proliferation assay (Cell-Titer-Glo, 120 h). The note with it: for EC50: Homo sapiens, MKN-45, 120 h, Cell-Titer-Glo, read-out: MKN45 Cell Prolif. 120 hr (EC50); for MKN45 Cell Prolif. 120 hr (Ymin-Obs): minimal percent of DMSO control observed in the concentrations tested. In kind it is cell-based. The method in brief:
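Cells seeded at 400/well onto pre-printed 10-point half-log dilutions (top 1 or 10 uM, 0.1% DMSO final), in triplicate, and grown 120 h at 37 C. Viability by Cell-Titer-Glo luminescence, blank-subtracted and normalised to DMSO; EC50 from four-parameter logistic fit, with observed minimal % of control recorded as Ymin-obs.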

Setting [1] is: lower limit of the fit (0 = luciferase inhibitor, Ymax = DMSO control).

The EC50 is the concentration that produces a half-maximal response.

Take `CNc1ccc2cc(CN3CC[C@H](Oc4ccc5c(c4)CN(C4CCC(=O)NC4=O)C5=O)C3)ccc2n1` (stereo partly drawn) [3-(5-{[(3S)-1-{[2-(methylamino)quinolin-6-yl]methyl}pyrrolidin-3-yl]oxy}-1-oxo-2,3-dihydro-1H-isoindol-2-yl)piperidine-2,6-dione]: the “293T-LentiX WEE1-ePL Degradation 4 hr (Ymin)” value on WEE1 (setting [1]) was 31.06. In addition, the DC50 on WEE1 was 7.21 nM. For the same compound, the EC50 in the assay on MKN45 cells (growth inhibition) was found to be 21.8 nM. The “MKN45 Cell Prolif. 120 hr (Ymin-Obs)” value in the assay with MKN45 cells turned out to be 9.31.
As for `O=C1CCC(N2Cc3cc(O[C@H]4CCN(Cc5cc6cccc(F)c6cn5)C4)ccc3C2=O)C(=O)N1` (stereo partly drawn) [3-(5-{[(3S)-1-[(8-fluoroisoquinolin-3-yl)methyl]pyrrolidin-3-yl]oxy}-1-oxo-2,3-dihydro-1H-isoindol-2-yl)piperidine-2,6-dione], on WEE1 (setting [1]), the “293T-LentiX WEE1-ePL Degradation 4 hr (Ymin)” value is 30.295. The DC50 at WEE1 came to 5.32 nM. Also, in the assay with MKN45 cells (growth inhibition), the EC50 was found to be 24.4 nM. In addition, the “MKN45 Cell Prolif. 120 hr (Ymin-Obs)” value in the assay on MKN45 cells stood at 10.49.
As for `Cc1cc(O)c2cc(CN3CC[C@H](Oc4ccc5c(c4)CN(C4CCC(=O)NC4=O)C5=O)C3)ccc2n1` (stereo partly drawn) [3-(5-{[(3S)-1-[(4-hydroxy-2-methylquinolin-6-yl)methyl]pyrrolidin-3-yl]oxy}-1-oxo-2,3-dihydro-1H-isoindol-2-yl)piperidine-2,6-dione], the “293T-LentiX WEE1-ePL Degradation 4 hr (Ymin)” value on WEE1 (setting [1]) is given as 73. Besides, at WEE1, the DC50 worked out at 528 nM. In the assay with MKN45 cells (growth inhibition), the EC50 was greater than 10000 nM. Further, the “MKN45 Cell Prolif. 120 hr (Ymin-Obs)” value in the assay on MKN45 cells was 87.83.
Regarding `O=C1CCC(N2Cc3cc(O[C@H]4CCN(Cc5ccc6nc(Oc7ccccn7)ccc6c5)C4)ccc3C2=O)C(=O)N1` (stereo partly drawn) [3-(1-oxo-5-{[(3S)-1-{[2-(pyridin-2-yloxy)quinolin-6-yl]methyl}pyrrolidin-3-yl]oxy}-2,3-dihydro-1H-isoindol-2-yl)piperidine-2,6-dione], the “293T-LentiX WEE1-ePL Degradation 4 hr (Ymin)” value at WEE1 (setting [1]) was determined as 35. Moreover, on WEE1, the DC50 worked out at 6.39 nM. For the same compound, the 50% effective concentration (EC50) in the assay on MKN45 cells (growth inhibition) amounted to 2.88 nM. In addition, in the assay with MKN45 cells, the “MKN45 Cell Prolif. 120 hr (Ymin-Obs)” value is 7.62.
The matching figures for `O=C1CCC(N2Cc3cc(O[C@H]4CCN(Cc5ccc6nc(CF)ccc6c5)C4)ccc3C2=O)C(=O)N1` (stereo partly drawn) [3-(5-{[(3S)-1-{[2-(fluoromethyl)quinolin-6-yl]methyl}pyrrolidin-3-yl]oxy}-1-oxo-2,3-dihydro-1H-isoindol-2-yl)piperidine-2,6-dione]: 26.21, 1.62 nM, 11.8 nM and 10.025.
In the case of `COC[C@H]1CC[C@H](c2ccc3cc(CN4CC[C@H](Oc5ccc6c(c5)CN(C5CCC(=O)NC5=O)C6=O)C4)ccc3n2)C1` (stereo partly drawn) [3-(5-{[(3S)-1-({2-[(1S,3S)-3-(methoxymethyl)cyclopentyl]quinolin-6-yl}methyl)pyrrolidin-3-yl]oxy}-1-oxo-2,3-dihydro-1H-isoindol-2-yl)piperidine-2,6-dione], the “293T-LentiX WEE1-ePL Degradation 4 hr (Ymin)” value at WEE1 (lower limit of the fit (Ymin=0 luciferase inhibitor, Ymax DMSO control)) is on record as 33.9. For the same compound, at WEE1, the DC50 was determined as 6.8 nM. Moreover, in the assay with MKN45 cells, the EC50 turned out to be 2.52 nM and the “MKN45 Cell Prolif. 120 hr (Ymin-Obs)” value is given as 8.033.
